*1 amine or outer side, *2 acyl side, *3 side chain or, on linkers, in order; H or OH if unused. Where a SMILES comes first, the peptide text is derived from it. Bridges are numbered along the chain shown (N, C = ends). [ ]: non-standard residue; d: D form. The star is where a group is joined. C20 diacid = O=C(O)CCCCCCCCCCCCCCCCCCC(=O)*; γGlu = O=C(O)[C@H](CCC(=O)[*:2])N[*:1]; Hyp = O=C(O)[C@@H]1C[C@@H](O)CN1; NMeI = CC[C@H](C)[C@H](NC)C(=O)O; Sar = CNCC(=O)O
Key:
[1] = molecular target: T1, human calcitonin receptor (hCTR2) (Homo sapiens, UniProt P30988); experiment: hCTR2 cAMP assay (AlphaScreen) in COS7 cells; format: cell-based; conditions: cAMP induction, COS7 cells expressing hCTR2; Table 1; read-out: hCTR2 EC50
T1 construct: expressed in transfected cells
T1 sequence (P30988 25-474): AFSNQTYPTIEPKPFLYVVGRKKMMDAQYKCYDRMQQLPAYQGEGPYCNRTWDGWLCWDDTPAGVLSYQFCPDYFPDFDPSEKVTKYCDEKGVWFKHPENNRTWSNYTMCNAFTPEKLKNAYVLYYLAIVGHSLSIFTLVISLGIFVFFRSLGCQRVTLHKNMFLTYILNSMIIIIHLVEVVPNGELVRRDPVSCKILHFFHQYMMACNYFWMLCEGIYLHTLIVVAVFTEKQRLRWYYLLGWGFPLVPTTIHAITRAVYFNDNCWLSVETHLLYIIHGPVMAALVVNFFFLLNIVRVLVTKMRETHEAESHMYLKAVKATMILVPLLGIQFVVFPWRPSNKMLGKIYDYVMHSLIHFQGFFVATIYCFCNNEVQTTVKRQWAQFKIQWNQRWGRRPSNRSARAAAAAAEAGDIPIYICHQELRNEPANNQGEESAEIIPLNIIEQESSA
Method in brief: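 Stable hCTR2 clone in RAMP-naïve COS7 cells stimulated 15 min at 37 °C with increasing peptide concentrations in Tyrode buffer pH 7.4 containing IBMX and 0.1% casein. cAMP in lysates measured by AlphaScreen; EC50 from 4-parameter logistic fit.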

[2] = Assessment of chemical stability (RP-HPLC normalized purity); format: physicochemical; conditions: 7 days, 40° C., Table 1; for Normalized purity after 7 days, 40° C., pH 4: pH 4, 0.2 mg/ml; for Normalized purity after 7 days, 40° C., pH 6: pH 6, 0.2 mg/ml; for Normalized purity after 7 days, 40° C., pH 9: pH 9, 0.2 mg/ml; for Normalized purity after 7 days, 40° C., pH 7.5: pH 7.5, 0.2 mg/ml
Method in brief: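 Peptides at 0.2 mg/ml in water adjusted to pH 4, 6, 7.5 or 9, incubated at 40° C for 7 days. Main-peak area-% by RP-HPLC (C8 ammonium formate or C18 TFA gradient, UV 220 nm), normalized to T=0 as 100.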

[3] = Pharmacokinetic (PK) profiling in rats; format: in vivo, rat; parameters: CI/F (apparent clearance values): unit not given here; conditions: Sprague Dawley male rats, single sc 30 nmol/kg
Description: Sprague Dawley male rats were given a single subcutaneous (sc) bolus of each peptide to be tested, as specified below. 30 nmol/kg doses of compound were administered. Blood samples were drawn from the tail vein prior to dosing and at 24, 48, 72, 96 and 168 hours after dosing. Blood samples were taken from two rats at each time point, and only 2 blood samples were drawn from each rat, i.e. […] were used for each compound. The rats were euthanized immediately after the last blood sampling by concussion and cervical dislocation.
The dosing vehicle used for each test peptide was a mannitol-containing histidine buffer (pH 7.0). Plasma samples were analyzed after precipitation with ethanol by liquid chromatography mass spectrometry (LC-MS/MS). Mean plasma concentrations were used for calculation of the pharmacokinetic parameters using the non-compartmental approach in Phoenix WinNonlin 6.3.
Plasma terminal elimination half-life (t1/2) was determined as ln(2)/λz, where λz is the magnitude of the slope of the log linear regression of the log concentration versus time profile during the terminal phase. Apparent clearance (CL/F) was determined as dose/AUCinf (sc), where AUCinf is the area under the plasma concentration vs. time curve extrapolated to infinity (AUCinf=AUClast+Clast/λz, where Clast is the last observed plasma concentration).

| SMILES | EC50 [1] | Normalized purity after 7 days, 40° C., pH 4 [2] | Normalized purity after 7 days, 40° C., pH 6 [2] | Normalized purity after 7 days, 40° C., pH 9 [2] | CI/F (apparent clearance values) [3] | Normalized purity after 7 days, 40° C., pH 7.5 [2] |
| --- | --- | --- | --- | --- | --- | --- |
| CC[C@H](C)[C@@H](C(=O)N[C@@H](CC(C)C)C(=O)N[C@@H](CO)C(=O)N[C@@H](CO)C(=O)N[C@H](C(=O)N[C@@H](CCC(=O)O)C(=O)N[C@H](C(=O)NCC(=O)N[C@@H](CO)C(=O)N[C@@H](CC(N)=O)C(=O)N[C@H](C(=O)N1C[C@H](O)C[C@H]1C(N)=O)[C@@H](C)O)C(C)C)[C@@H](C)O)N(C)C(=O)[C@H](C)NC(=O)CN(C)C(=O)[C@H](Cc1ccccc1)NC(=O)[C@H](CO)NC(=O)[C@H](CO)NC(=O)[C@H](CCCNC(=N)N)NC(=O)[C@H](CC(N)=O)NC(=O)[C@H](CC(C)C)NC(=O)[C@H](Cc1ccccc1)NC(=O)[C@H](Cc1c[nH]cn1)NC(=O)[C@H](C)NC(=O)[C@H](CC(C)C)NC(=O)[C@H](CCCNC(=N)N)NC(=O)[C@H](CCC(=O)O)NC(=O)[C@@H](NC(=O)[C@H](C)NC(=O)[C@@H]1CSSC[C@H](NC(=O)[C@H](CCCNC(=N)N)NC(=O)CC[C@H](NC(=O)CCCCCCCCCCCCCCCCCCC(=O)O)C(=O)O)C(=O)NCC(=O)N[C@@H]([C@@H](C)O)C(=O)N[C@@H](C)C(=O)N[C@@H]([C@@H](C)O)C(=O)N1)[C@@H](C)O [Compound 6, [19CD]-isoGlu-R-C( )-GTAT-C( )-ATERLAHFLNRSSF-Gly(Me)-A-Ile(Me)-LSSTEVGSNT-Hyp-NH2] ({C20 diacid-γGlu}-RCGTATCATERLAHFLNRSSF[Sar]A[NMeI]LSSTEVGSNT[Hyp]-NH2; disulfide 2-7) | 0.077 nM | A (A = >90%) | B (B = 70-90%) | B (B = 70-90%) | 0.0069 | – |
| CC[C@H](C)[C@@H](C(=O)N[C@@H](CC(C)C)C(=O)N[C@@H](CO)C(=O)N[C@@H](CO)C(=O)N[C@H](C(=O)N[C@@H](CCC(=O)O)C(=O)N[C@H](C(=O)NCC(=O)N[C@@H](CO)C(=O)N[C@@H](CC(N)=O)C(=O)N[C@H](C(=O)N1C[C@H](O)C[C@H]1C(N)=O)[C@@H](C)O)C(C)C)[C@@H](C)O)N(C)C(=O)[C@H](C)NC(=O)CN(C)C(=O)[C@H](Cc1ccccc1)NC(=O)[C@H](CO)NC(=O)[C@H](CO)NC(=O)[C@H](CCCNC(=N)N)NC(=O)[C@H](CCC(N)=O)NC(=O)[C@H](CC(C)C)NC(=O)[C@H](Cc1ccccc1)NC(=O)[C@H](Cc1c[nH]cn1)NC(=O)[C@H](C)NC(=O)[C@H](CC(C)C)NC(=O)[C@H](CCCNC(=N)N)NC(=O)[C@H](CCC(=O)O)NC(=O)[C@@H](NC(=O)[C@H](C)NC(=O)[C@@H]1CSSC[C@H](NC(=O)[C@H](CCCNC(=N)N)NC(=O)CC[C@H](NC(=O)CCCCCCCCCCCCCCCCCCC(=O)O)C(=O)O)C(=O)NCC(=O)N[C@@H]([C@@H](C)O)C(=O)N[C@@H](C)C(=O)N[C@@H]([C@@H](C)O)C(=O)N1)[C@@H](C)O [Compound 7, [19CD]-isoGlu-R-C( )-GTAT-C( )-ATERLAHFLQRSSF-Gly(Me)-A-Ile(Me)-LSSTEVGSNT-Hyp-NH2] ({C20 diacid-γGlu}-RCGTATCATERLAHFLQRSSF[Sar]A[NMeI]LSSTEVGSNT[Hyp]-NH2; disulfide 2-7) | 0.087 nM | A (A = >90%) | A (A = >90%) | A (A = >90%) | 0.0087 | A (A = >90%) |
| CC[C@H](C)[C@@H](C(=O)N[C@@H](CC(C)C)C(=O)N[C@@H](CO)C(=O)N[C@@H](CO)C(=O)N[C@H](C(=O)N[C@@H](CCC(=O)O)C(=O)N[C@H](C(=O)NCC(=O)N[C@@H](CO)C(=O)N[C@@H](CC(N)=O)C(=O)N[C@H](C(=O)N1CCC[C@H]1C(N)=O)[C@@H](C)O)C(C)C)[C@@H](C)O)N(C)C(=O)[C@H](C)NC(=O)CN(C)C(=O)[C@H](Cc1ccccc1)NC(=O)[C@H](CO)NC(=O)[C@H](CO)NC(=O)[C@H](CCCNC(=N)N)NC(=O)[C@H](Cc1c[nH]cn1)NC(=O)[C@H](CC(C)C)NC(=O)[C@H](Cc1ccccc1)NC(=O)[C@H](Cc1c[nH]cn1)NC(=O)[C@H](C)NC(=O)[C@H](CC(C)C)NC(=O)[C@H](CCCNC(=N)N)NC(=O)[C@H](CCC(=O)O)NC(=O)[C@@H](NC(=O)[C@H](C)NC(=O)[C@@H]1CSSC[C@H](NC(=O)[C@H](CCCNC(=N)N)NC(=O)CC[C@H](NC(=O)CCCCCCCCCCCCCCCCCCC(=O)O)C(=O)O)C(=O)NCC(=O)N[C@@H]([C@@H](C)O)C(=O)N[C@@H](C)C(=O)N[C@@H]([C@@H](C)O)C(=O)N1)[C@@H](C)O [Compound 15, [19CD]-isoGlu-R-C( )-GTAT-C( )-ATERLAHFLHRSSF-Gly(Me)-A-Ile(Me)-LSSTEVGSNTP-NH2] ({C20 diacid-γGlu}-RCGTATCATERLAHFLHRSSF[Sar]A[NMeI]LSSTEVGSNTP-NH2; disulfide 2-7) | 0.044 nM | A (A = >90%) | B (B = 70-90%) | B (B = 70-90%) | 0.0116 | B (B = 70-90%) |
| CC[C@H](C)[C@@H](C(=O)N[C@@H](CC(C)C)C(=O)N[C@@H](CO)C(=O)N[C@@H](CO)C(=O)N[C@H](C(=O)N[C@@H](CCC(=O)O)C(=O)N[C@H](C(=O)NCC(=O)N[C@@H](CO)C(=O)N[C@@H](CO)C(=O)N[C@H](C(=O)N1C[C@H](O)C[C@H]1C(N)=O)[C@@H](C)O)C(C)C)[C@@H](C)O)N(C)C(=O)[C@H](C)NC(=O)CN(C)C(=O)[C@H](Cc1ccccc1)NC(=O)[C@H](CO)NC(=O)[C@H](CO)NC(=O)[C@H](CCCNC(=N)N)NC(=O)[C@H](CCC(N)=O)NC(=O)[C@H](CC(C)C)NC(=O)[C@H](Cc1ccccc1)NC(=O)[C@H](Cc1c[nH]cn1)NC(=O)[C@H](C)NC(=O)[C@H](CC(C)C)NC(=O)[C@H](CCCNC(=N)N)NC(=O)[C@H](CCC(=O)O)NC(=O)[C@@H](NC(=O)[C@H](C)NC(=O)[C@@H]1CSSC[C@H](NC(=O)[C@H](CCCNC(=N)N)NC(=O)CC[C@H](NC(=O)CCCCCCCCCCCCCCCCCCC(=O)O)C(=O)O)C(=O)NCC(=O)N[C@@H]([C@@H](C)O)C(=O)N[C@@H](C)C(=O)N[C@@H]([C@@H](C)O)C(=O)N1)[C@@H](C)O [Compound 28, [19CD]-isoGlu-R-C( )-GTAT-C( )-ATERLAHFLQRSSF-Gly(Me)-A-Ile(Me)-LSSTEVGSST-Hyp-NH2] ({C20 diacid-γGlu}-RCGTATCATERLAHFLQRSSF[Sar]A[NMeI]LSSTEVGSST[Hyp]-NH2; disulfide 2-7) | 0.11 nM | A (A = >90%) | B (B = 70-90%) | B (B = 70-90%) | 0.0128 | B (B = 70-90%) |
| CC[C@H](C)[C@@H](C(=O)N[C@@H](CC(C)C)C(=O)N[C@@H](CO)C(=O)N[C@@H](CO)C(=O)N[C@H](C(=O)N[C@@H](CCC(=O)O)C(=O)N[C@H](C(=O)NCC(=O)N[C@@H](CO)C(=O)N[C@@H](CO)C(=O)N[C@H](C(=O)N1CCC[C@H]1C(N)=O)[C@@H](C)O)C(C)C)[C@@H](C)O)N(C)C(=O)[C@H](C)NC(=O)CN(C)C(=O)[C@H](Cc1ccccc1)NC(=O)[C@H](CO)NC(=O)[C@H](CO)NC(=O)[C@H](CCCNC(=N)N)NC(=O)[C@H](CCC(N)=O)NC(=O)[C@H](CC(C)C)NC(=O)[C@H](Cc1ccccc1)NC(=O)[C@H](Cc1c[nH]cn1)NC(=O)[C@H](C)NC(=O)[C@H](CC(C)C)NC(=O)[C@H](CCCNC(=N)N)NC(=O)[C@H](CCC(=O)O)NC(=O)[C@@H](NC(=O)[C@H](C)NC(=O)[C@@H]1CSSC[C@H](NC(=O)[C@H](CCCNC(=N)N)NC(=O)CC[C@H](NC(=O)CCCCCCCCCCCCCCCCCCC(=O)O)C(=O)O)C(=O)NCC(=O)N[C@@H]([C@@H](C)O)C(=O)N[C@@H](C)C(=O)N[C@@H]([C@@H](C)O)C(=O)N1)[C@@H](C)O [Compound 34, [19CD]-isoGlu-R-C( )-GTAT-C( )-ATERLAHFLQRSSF-Gly(Me)-A-Ile(Me)-LSSTEVGSSTP-NH2] ({C20 diacid-γGlu}-RCGTATCATERLAHFLQRSSF[Sar]A[NMeI]LSSTEVGSSTP-NH2; disulfide 2-7) | 0.09 nM | A (A = >90%) | B (B = 70-90%) | B (B = 70-90%) | 0.0148 | B (B = 70-90%) |
